Experiments:
Format in all cases: in vivo, human
[1] = Plasma noribogaine pharmacokinetics after ascending single oral doses in healthy volunteers; conditions: for mean AUC/24 hr / mean AUC/24: fasting, serum; for CL/F: fasted healthy volunteers, mean (SD), n = 6
Text: Thirty-six healthy, drug-free male volunteers, aged between 18-55 years, were enrolled in and completed the study. This was an ascending single-dose, placebo-controlled, randomized double blind, parallel group study. Mean (SD) age was 22.0 (3.3) years, mean (SD) height was 1.82 (0.08) m, and mean (SD) weight was 78.0 (9.2) kg. Twenty-six subjects were Caucasian, 3 were Asian, 1 Maori, 1 Pacific Islander, and 5 Other. The protocol for this study was approved by the Lower South Regional Ethics Committee (LRS/12/06/015), and the study was registered with the Australian New Zealand Clinical Trial Registry (ACTRN12612000821897). All subjects provided signed informed consent prior to enrolment, and were assessed as suitable to participate based on review of medical history, physical examination, safety laboratory tests, vital signs and ECG.
Within each dose level, 6 participants were randomized to receive noribogaine and 3 to receive placebo, based on a computer-generated random code. Dosing began with the lowest noribogaine dose, and subsequent cohorts received the next highest dose after the safety, tolerability, and blinded pharmacokinetics of the completed cohort were reviewed and dose-escalation approved by an independent Data Safety Monitoring Board. Blinded study drug was administered as a capsule with 240 ml of water after an overnight fast of at least 10 hours. […] Participants were confined to the study site from 12 hours prior to drug administration, until 72 hours post-dose, and there were subsequent outpatient assessments until 216 hours post-dose.
Blood was obtained for pharmacokinetic assessments pre-dose and then at 0.25, 0.5, 0.75, 1.0, 1.25, 1.5, 2, 2.5, 3, 3.5, 4, 4.5, 5, 5.5, 6, 7, 8, 10, 12, 14, 18, 24, 30, 36, 48, 60, 72, 96, 120, 168 and 216 hours post-dose. Samples were centrifuged and plasma stored at −70° C. until analyzed. Block 24 hour urine collections were obtained following study drug administration for the 30 and 60 mg cohorts. Aliquots were frozen at −20° C. until analyzed.
Plasma noribogaine concentrations were determined in the 3 mg and 10 mg dose groups using a validated, sensitive LCMSMS method. Sample preparation involved double extraction of basified plasma samples with tert-butyl methyl ether, drying the samples under a stream of nitrogen and reconstitution of sample with acetonitrile:B.P. water (5:95, v/v) containing 0.1% (v/v) formic acid. The compounds were separated by a 150×2.0 mm Luna 5 μm C18 column and detected with a triple-quadrupole API 4000 or 5000 mass spectrometer using electrospray ionization in positive mode and multiple reaction monitoring. Noribogaine-d4 was used as the internal standard. The precursor-product ion transition values for noribogaine were m/z 297.6→122.3, and for the internal standard noribogaine-d4 m/z 301.1→122.2. Analyst® software was used for data acquisition and processing. The ratio of the peak area of noribogaine to the internal standard noribogaine-d4 was used for calibration and measurement of the unknown concentration of noribogaine. The lower limit of quantification (LLOQ) was 0.025 ng/ml noribogaine. The calibration curve was between 0.025 and 25.600 ng/ml noribogaine. Mobile phase A was acetonitrile:B.P. water (5:95, v/v) containing 0.1% (v/v) formic acid, and mobile phase B was acetonitrile:B.P. water (95:5, v/v) containing 0.1% (v/v) formic acid. Total run time was 6 minutes. Binary flow: Initial concentration was 8% mobile phase B; hold at 8% mobile phase B for 0.5 minutes and linear rise to 90% mobile phase B over 1.5 minutes; hold at 90% mobile phase B for 1 minute and then drop back to 8% mobile phase B over 0.01 minute. Equilibrate system for 3 minutes. Total run time was 6 minutes. Within- and between-day assay precision was <9%, and within- and between-day assay accuracy was <9%.
Plasma noribogaine concentrations were determined in the 30 mg and 60 mg dose groups using a validated, sensitive LCMSMS method. […]

[2] = Opiate withdrawal scales (COWS, SOWS, OOWS) in opioid-dependent patients; conditions: single 120 mg dose, first six hours following dosing
Description: Patients were evaluated based on the Clinical Opiate Withdrawal Scale (COWS), Subjective Opiate Withdrawal Scale (SOWS), and Objective Opiate Withdrawal Scale (OOWS) scoring systems over the period of time between administration of noribogaine (or placebo) until resumption of OST. These scales are outlined in Guidelines for the Psychosocially Assisted Pharmacological Treatment of Opioid Dependence, World Health Organization, Geneva (2009), Annex 10, which is incorporated herein by reference in its entirety. The scales measure the intensity of withdrawal symptoms, based on clinical, subjective, and objective indicia.

[3] = Time to resumption of opioid substitution treatment (OST) in opioid-dependent patients
[4] = Cold pressor test (analgesic effect) in healthy volunteers; conditions: 3-60 mg single oral doses vs placebo, 1° C. water
Description: Analgesic effect was assessed based on duration of hand immersion in ice water and on visual analog scale (VAS) pain scores upon hand removal from the water bath.
Safety and tolerability of noribogaine were tested in the group of volunteers from Example 1. Cold pressor testing was conducted in 1° C. water according to the method of Mitchell et al. (J Pain 5:233-237, 2004) pre-dose, 6, 24, 48, 72 and 216 hours post-dosing. Safety evaluations included clinical monitoring, recording of adverse events (AEs), safety laboratory tests, vital signs, ECG telemetry from −2 h to 6 h after dosing, and 12-lead electrocardiograms (ECGs) up to 216 hours post-dosing.

[5] = Pupillary miosis assessed by pupillometry in healthy volunteers; conditions: 3-60 mg single oral doses vs placebo, up to 216 hours, p>0.9
Description: Pulse oximetry and capnography data were collected continuously using a GE Carescape B650 monitoring system from 2 hours prior to dosing and until six hours after dosing, and thereafter at 12, 24, 48 and 72 hours post-dosing. Additional oximetry data were collected at 120, 168 and 216 hours. Pupillary miosis was assessed by pupillometry. Dark-adapted pupil diameter was measured in triplicate using a Neuroptics PLR-200 pupillometer under standardized light intensity (<5 lux) pre-dose, and at 2, 4, 6, 12, 24, 48, 72, 96, 120, 168 and 216 hours post-dosing.
Summary statistics (means, standard deviations, and coefficients of variation) were determined for each dose group for safety laboratory test data, ECG and pharmacokinetic parameters, and pharmacodynamic variables. Categorical variables were analysed using counts and percentages. Dose-proportionality of AUC and Cmax was assessed using linear regression. The effect of dose on pharmacodynamic parameter values over time was assessed using two-factor analysis of variance (ANOVA). Pairwise comparisons (with Tukey-Kramer adjustment) between each dose group to the placebo were conducted at each time point using the least squares estimates obtained from the ANOVA, using SAS Proc Mixed (SAS ver 6.0).

[6] = QT interval evaluation in opioid-dependent patients; conditions: 60, 120, 180 mg, first 24 hours post administration
Description: Patients' QT intervals were evaluated at regular time points throughout the study.

CC[C@H]1CC2C[C@H]3c4[nH]c5ccc(O)cc5c4CCN(C2)C13 [Noribogaine, noribogaine]
Dose-proportionality of Cmax and AUC ([1]; 3-60 mg single oral doses, healthy volunteers): increased linearly with dose
time of peak concentrations after oral dosing ([1]; across 3-60 mg dose groups, healthy volunteers): 2 to 3 h
Mean half-life estimates ([1]; across dose groups (3-60 mg), healthy volunteers): 28 to 50 h
mean AUC/24 hr ([1]; single dose of 3 mg free base): 3.1 ng/mL
mean AUC/24 hr ([1]; single dose of 10 mg free base): 10.6 ng/mL
mean AUC/24 ([1]; single dose of 30 mg free base): 29.2 ng/mL
mean AUC/24 ([1]; single dose of 60 mg free base): 61 ng/mL
CL/F ([1]; single oral 3 mg dose): 41.4 (7.0) L/h
CL/F ([1]; single oral 10 mg dose): 42.3 (12.0) L/h
CL/F ([1]; single oral 30 mg dose): 46.9 (16.4) L/h
CL/F ([1]; single oral 60 mg dose): 34.0 (11.4) L/h
withdrawal symptoms (COWS, OOWS, SOWS scores) [2]: fewer withdrawal symptoms than the other patients
average time to resumption of opioids (OST) ([3]; single 120 mg dose): greater than 20 hours
average time to resumption of opioids (OST) ([3]; single 180 mg dose): still longer than untreated patients (7 hours, not shown) or those administered 60 mg noribogaine
analgesic effect in the cold pressor test (duration of hand immersion, VAS pain scores) [4]: no analgesic effect
pupillary constriction (dark-adapted pupil diameter) [5]: no evidence of pupillary constriction
QT interval prolongation (ΔQTcl) [6]: dose-dependent increase in QT interval prolongation
